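Exposure lasted 48 hours, with cells grown in 96-well plates and compounds tested at five concentrations. Abbreviation: GI50, concentration required for 50% inhibition of growth. TGI marks complete inhibition of growth.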 Bounds are passed on as bounds.

Consider seven compounds from PubChem BioAssay (NCI).

Test systems include SK-MEL-2 melanoma; COLO 205 colon; HS 578T breast; SF-539 CNS; SNB-75 CNS; HOP-62 NSCLC; A549 NSCLC; MDA-MB-231 breast; PC-3 prostate; DU-145 prostate.
Assay in all cases: inhibition of tumour cell growth, NCI panel, 48 h

In the case of `COc1cc2c(cc1Nc1nc(Nc3cccc(F)c3C(N)=O)c3cc[nH]c3n1)N(C(=O)CN1CCN(C(C)C)CC1)CC2`, the GI50 with SK-MEL-2 melanoma was 3.3 µM; with COLO 205 colon, 0.666 µM; in the experiment with HS 578T breast it was 3.76 µM; in the experiment on SF-539 CNS, 3.74 µM; with SNB-75 CNS it was 3 µM; in the experiment on HOP-62 NSCLC, 2.88 µM. Further, the GI50 is 3.48 µM with A549 NSCLC, 3.94 µM in the experiment with MDA-MB-231 breast, 5.12 µM in the experiment with PC-3 prostate and 3.77 µM with DU-145 prostate. Moreover, the TGI was 6.95 µM with SK-MEL-2 melanoma; 3.65 µM in the experiment on COLO 205 colon; 10.3 µM with HS 578T breast; 7.7 µM in the experiment with SF-539 CNS; 6.18 µM in the experiment on SNB-75 CNS; 5.92 µM in the experiment on HOP-62 NSCLC. In addition, the TGI in the experiment on A549 NSCLC came to 7.19 µM; in the experiment on MDA-MB-231 breast it was 8.22 µM; with PC-3 prostate it was 13.5 µM; with DU-145 prostate it was 7.28 µM.

Turning to `CCCCCCCCC(=O)OCC(CS[As](C)C)OC(=O)CCCCCCCC` (centres undefined), the GI50 in the experiment on SK-MEL-2 melanoma was 13.2 µM; in the experiment with COLO 205 colon, 0.557 µM; with HS 578T breast it was 1.39 µM; in the experiment on SF-539 CNS, 0.49 µM; in the experiment on SNB-75 CNS it was 5.44 µM; with HOP-62 NSCLC it was 15.1 µM. In addition, the GI50 with A549 NSCLC is 8.36 µM; in the experiment on MDA-MB-231 breast it was 2.7 µM; in the experiment with PC-3 prostate, 2.6 µM; in the experiment on DU-145 prostate, 0.747 µM. The TGI in the experiment on SK-MEL-2 melanoma was determined as 58.9 µM; in the experiment on COLO 205 colon it was 24.8 µM; in the experiment on SF-539 CNS it was 1.28 µM; with SNB-75 CNS, 23.5 µM; with HOP-62 NSCLC it was 53.1 µM; with A549 NSCLC, 41.7 µM. The TGI amounted to 18.4 µM in the experiment with MDA-MB-231 breast, 21.8 µM in the experiment on PC-3 prostate and 2.64 µM in the experiment with DU-145 prostate.

As for `CCN1Cc2nc3sc(C)c(C)c3c(=O)n2C=C1C`, the GI50 with SK-MEL-2 melanoma was 21.1 µM; in the experiment on COLO 205 colon it was 24.4 µM; with HS 578T breast it was 1.66 µM; in the experiment on SF-539 CNS, 12.9 µM; in the experiment with SNB-75 CNS, 10.2 µM; with HOP-62 NSCLC, 16.4 µM. Further, the GI50 was 38.5 µM in the experiment with A549 NSCLC, 8.14 µM in the experiment on MDA-MB-231 breast, 4.07 µM in the experiment with PC-3 prostate and 7.7 µM in the experiment on DU-145 prostate. Besides, the TGI is over 100 µM with SK-MEL-2 melanoma; over 100 µM in the experiment on COLO 205 colon; 6.92 µM with HS 578T breast; 34.4 µM with SF-539 CNS; over 100 µM in the experiment with SNB-75 CNS; 75.1 µM with HOP-62 NSCLC. Further, the TGI with A549 NSCLC is over 100 µM; in the experiment on MDA-MB-231 breast, 24.7 µM; in the experiment on PC-3 prostate, over 100 µM; in the experiment with DU-145 prostate, 23 µM.

`CC1OC(OC2C(OC3CCC4(C)C(CCC5(C)C4CC=C4C6CC(C)(C)CCC6(C(=O)O)CCC45C)C3(C)CO)OCC(O)C2O)C(O)C(O)C1O` (centres undefined): the TGI in the experiment with SK-MEL-2 melanoma is 33.3 µM; in the experiment on COLO 205 colon, 44.4 µM; with HS 578T breast, 31.8 µM; with SF-539 CNS it was 32.8 µM; in the experiment on SNB-75 CNS it was 30.7 µM; in the experiment with HOP-62 NSCLC it was over 100 µM. In addition, the TGI in the experiment on A549 NSCLC was found to be 38.2 µM; in the experiment with MDA-MB-231 breast, 35.4 µM; in the experiment with PC-3 prostate, 29.1 µM; in the experiment on DU-145 prostate, 42.3 µM.

With `NCC1OC(OC2C(CO)OC(OC3C(O)C(N)CC(N)C3OC3OC(CO)C(O)CC3N)C2O)C(N)C(O)C1OC1OC(CO)C(O)C(O)C1O` (centres undefined), the GI50 in the experiment on SK-MEL-2 melanoma, with COLO 205 colon, in the experiment with HS 578T breast, in the experiment with SF-539 CNS, in the experiment with SNB-75 CNS and with HOP-62 NSCLC was over 50 µg/mL in each case. Besides, the GI50 in the experiment on A549 NSCLC, in the experiment with MDA-MB-231 breast, in the experiment with PC-3 prostate and in the experiment with DU-145 prostate was over 50 µg/mL throughout. Moreover, the TGI in the experiment with SK-MEL-2 melanoma, in the experiment on COLO 205 colon, with HS 578T breast, in the experiment on SF-539 CNS, with SNB-75 CNS and in the experiment with HOP-62 NSCLC was over 50 µg/mL throughout. In addition, the TGI in the experiment on A549 NSCLC, in the experiment on MDA-MB-231 breast, in the experiment on PC-3 prostate and with DU-145 prostate was over 50 µg/mL each time.

With `Cn1c(=O)c(Oc2ccc(F)cc2F)cc2cnc(NC3CCS(=O)(=O)CC3)nc21`, the GI50 with SK-MEL-2 melanoma is over 25 µM; in the experiment on COLO 205 colon it was over 25 µM; in the experiment with HS 578T breast, over 25 µM; with SF-539 CNS it was over 25 µM; in the experiment with SNB-75 CNS, over 14.2 µM; in the experiment with HOP-62 NSCLC it was over 14.8 µM. Moreover, the GI50 in the experiment on A549 NSCLC is over 25 µM; in the experiment with MDA-MB-231 breast, over 22 µM; with PC-3 prostate, over 25 µM; in the experiment with DU-145 prostate, over 25 µM. Further, the TGI in the experiment with SK-MEL-2 melanoma, in the experiment with COLO 205 colon, with HS 578T breast, with SF-539 CNS, in the experiment on SNB-75 CNS and in the experiment on HOP-62 NSCLC was over 25 µM each time. The TGI in the experiment on A549 NSCLC, with MDA-MB-231 breast, in the experiment with PC-3 prostate and in the experiment with DU-145 prostate was over 25 µM each time.

In the case of `CCN(CC)C1CCC(Nc2c(C(C)=O)cnc3ccc(-c4ccc(O)c(Cl)c4)cc23)CC1` (centres undefined), the GI50 with SK-MEL-2 melanoma was 4.15 µM; in the experiment with COLO 205 colon, 10.7 µM; in the experiment on HS 578T breast, 0.157 µM; in the experiment on SF-539 CNS it was 0.551 µM; in the experiment with SNB-75 CNS it was 0.152 µM; in the experiment with HOP-62 NSCLC, 2.14 µM. In addition, the GI50 in the experiment on A549 NSCLC is 0.58 µM; with MDA-MB-231 breast, 0.741 µM; with PC-3 prostate it was 0.494 µM; in the experiment with DU-145 prostate it was 0.875 µM. The TGI in the experiment on SK-MEL-2 melanoma was 28.2 µM; in the experiment with COLO 205 colon, 40.7 µM; in the experiment on HS 578T breast it was 2.81 µM; with SF-539 CNS, 7.87 µM; with SNB-75 CNS, 5.33 µM; in the experiment on HOP-62 NSCLC, over 45.5 µM. The TGI with A549 NSCLC was 5.52 µM; in the experiment with MDA-MB-231 breast, 12.5 µM; in the experiment with PC-3 prostate, over 44.5 µM; in the experiment on DU-145 prostate, over 35.5 µM.
